The text below walks through data of patent US20220313698A1, “MODULATORS OF CYSTIC FIBROSIS TRANSMEMBRANE CONDUCTANCE REGULATOR” (Vertex Pharmaceuticals Incorporated, priority 2019, published 2022).

The target of this assay is CFTR-mediated chloride transport (Homo sapiens, UniProt P13569). The assay is described as follows: Corrector Assay A - membrane potential dye assay (enteroid cells). The settings on record: for Corrector Assay A % activity: % of chloride transport of triple combination control (1 μM (14S)-dispiro macrocycle + 3 μM tezacaftor + 300 nM ivacaftor); for EC50: read-out: Corrector Assay A EC50, human intestinal enteroid cells, 18-24 h incubation, acute 10 μM forskolin + 300 nM ivacaftor.

Each structure is given as a SMILES string.

Take `CC(C)(C)c1ccnc(C2CC[C@@H]3CN(c4nc(C(C)(C)C)ncc4C(=O)NS(=O)(=O)c4cccc(n4)N2)C(C)(C)C3)c1` (single isomer, unassigned) [Compound 1]: the “Corrector Assay A % activity” value is given as “+ (+ is <30%)”.
As to `CC(C)(C)c1ccnc(C2CC[C@@H]3CN(c4nc(C(C)(C)C)ncc4C(=O)NS(=O)(=O)c4cccc(n4)N2)C(C)(C)C3)c1` (single isomer, unassigned) [Compound 2], the “Corrector Assay A % activity” value is listed as “+++ (+++ is >60%)” and the EC50 was less than 1000 nM.
On to `Cc1cccc2cc3c(nc12)N1C[C@@H](CCC(c2cc(C(C)(C)C)ccn2)Nc2cccc(n2)S(=O)(=O)NC3=O)CC1(C)C` (single isomer, unassigned) [Compound 3], for which the “Corrector Assay A % activity” value is “+++ (+++ is >60%)” and the EC50 is less than 1000 nM.
The corresponding values for `Cc1cccc2cc3c(nc12)N1C[C@@H](CCC(c2cc(C(C)(C)C)ccn2)Nc2cccc(n2)S(=O)(=O)NC3=O)CC1(C)C` (single isomer, unassigned) [Compound 4] are “++ (++ is 30-60%)” and less than 1000 nM.
In the same order, the values of `Cc1ccc2nc3c(cc2c1)C(=O)NS(=O)(=O)c1cccc(n1)N[C@H](c1cc(C(C)(C)C)ccn1)CC[C@@H]1CN3C(C)(C)C1` (single isomer, unassigned) [Compound 5] are “+++ (+++ is >60%)” and less than 1000 nM.
As for `Cc1ccc2nc3c(cc2c1)C(=O)NS(=O)(=O)c1cccc(n1)N[C@H](c1cc(C(C)(C)C)ccn1)CC[C@@H]1CN3C(C)(C)C1` (single isomer, unassigned) [Compound 6], the “Corrector Assay A % activity” value is listed as “++ (++ is 30-60%)” and the EC50 is less than 1000 nM.
The corresponding values for `Cc1ccc2cc3c(nc2c1)N1C[C@@H](CC[C@@H](c2cc(C(C)(C)C)ccn2)Nc2cccc(n2)S(=O)(=O)NC3=O)CC1(C)C` (single isomer, unassigned) [Compound 7] are “+++ (+++ is >60%)” and less than 1000 nM.
Consider `Cc1ccc2cc3c(nc2c1)N1C[C@@H](CC[C@@H](c2cc(C(C)(C)C)ccn2)Nc2cccc(n2)S(=O)(=O)NC3=O)CC1(C)C` (single isomer, unassigned) [Compound 8], for which the “Corrector Assay A % activity” value was “++ (++ is 30-60%)” and the EC50 is less than 1000 nM.
For the molecule `CC(C)(C)c1ccnc([C@@H]2CC[C@@H]3CN(c4nc5ccccc5cc4C(=O)NS(=O)(=O)c4cccc(n4)N2)C(C)(C)C3)c1` (single isomer, unassigned) [Compound 9], the “Corrector Assay A % activity” value is “+++ (+++ is >60%)” and the EC50 was less than 1000 nM.
As to `CC(C)(C)c1ccnc([C@@H]2CC[C@@H]3CN(c4nc5ccccc5cc4C(=O)NS(=O)(=O)c4cccc(n4)N2)C(C)(C)C3)c1` (single isomer, unassigned) [Compound 10], the “Corrector Assay A % activity” value is on record as “++ (++ is 30-60%)” and the EC50 is less than 1000 nM.
In the same order, the values of `CC(O)CC1CC[C@@H]2CN(c3nc(C(C)(C)C)ccc3C(=O)NS(=O)(=O)c3cccc(n3)N1)C(C)(C)C2` (single isomer, unassigned) [Compound 20] are “++ (++ is 30-60%)” and less than 1000 nM.
In the same order, the values of `CC(O)CC1CC[C@@H]2CN(c3nc(C(C)(C)C)ccc3C(=O)NS(=O)(=O)c3cccc(n3)N1)C(C)(C)C2` (single isomer, unassigned) [Compound 22] are “++ (++ is 30-60%)” and less than 1000 nM.
In the same order, the values of `CC(C)(O)/C=C/CC1CC[C@@H]2CN(c3nc(C(C)(C)C)ccc3C(=O)NS(=O)(=O)c3cccc(n3)N1)C(C)(C)C2` (single isomer, unassigned) [Compound 23] are “+++ (+++ is >60%)” and less than 1000 nM.
`CC(C)(O)/C=C/CC1CC[C@@H]2CN(c3nc(C(C)(C)C)ccc3C(=O)NS(=O)(=O)c3cccc(n3)N1)C(C)(C)C2` (single isomer, unassigned) [Compound 24]: the “Corrector Assay A % activity” value was “++ (++ is 30-60%)” and the EC50 is less than 1000 nM.
In the same order, the values of `CC(C)(C)c1ccc2c(n1)N1C[C@@H](CCC(c3cc(C4COC4)ccn3)Nc3cccc(n3)S(=O)(=O)NC2=O)CC1(C)C` (single isomer, unassigned) [Compound 25] are “+++ (+++ is >60%)” and less than 1000 nM.
The corresponding values for `CC(C)(C)c1ccc2c(n1)N1C[C@@H](CCC(c3cc(C4COC4)ccn3)Nc3cccc(n3)S(=O)(=O)NC2=O)CC1(C)C` (single isomer, unassigned) [Compound 26] are “+++ (+++ is >60%)” and less than 1000 nM.
In the same order, the values of `C[C@@H](O)C[C@@H]1CC[C@@H]2CN(c3nc(C(C)(C)C)ccc3C(=O)NS(=O)(=O)c3cccc(n3)N1)C(C)(C)C2` (single isomer, unassigned) [Compound 27] are “++ (++ is 30-60%)” and less than 1000 nM.
`C[C@@H](O)C[C@@H]1CC[C@@H]2CN(c3nc(C(C)(C)C)ccc3C(=O)NS(=O)(=O)c3cccc(n3)N1)C(C)(C)C2` (single isomer, unassigned) [Compound 28]: the “Corrector Assay A % activity” value is recorded as “+++ (+++ is >60%)” and the EC50 was less than 1000 nM.
Turning to `CC(C)(C)c1ccc2c(n1)N1C[C@@H](CCC(CC(O)CO)Nc3cccc(n3)S(=O)(=O)NC2=O)CC1(C)C` (single isomer, unassigned) [Compound 30], the “Corrector Assay A % activity” value was “++ (++ is 30-60%)” and the EC50 is less than 1000 nM.
The corresponding values for `CC(C)(C)c1ccc2c(n1)N1C[C@@H](CCC(CC(O)CO)Nc3cccc(n3)S(=O)(=O)NC2=O)CC1(C)C` (single isomer, unassigned) [Compound 31] are “++ (++ is 30-60%)” and less than 1000 nM.
Take `CC(C)(C)c1ccc2c(n1)N1C[C@@H](CCC(CC(O)CO)Nc3cccc(n3)S(=O)(=O)NC2=O)CC1(C)C` (single isomer, unassigned) [Compound 32]: the “Corrector Assay A % activity” value is recorded as “+++ (+++ is >60%)” and the EC50 was less than 1000 nM.
The corresponding values for `CC(C)(C)c1ccc2c(n1)N1C[C@@H](CCC(CC(O)CO)Nc3cccc(n3)S(=O)(=O)NC2=O)CC1(C)C` (single isomer, unassigned) [Compound 33] are “+++ (+++ is >60%)” and less than 1000 nM.
The corresponding values for `C=CCC1CC[C@@H]2CN(c3nc(C(C)(C)C)ccc3C(=O)NS(=O)(=O)c3cccc(n3)N1)C(C)(C)C2` (single isomer, unassigned) [Compound 34] are “+++ (+++ is >60%)” and less than 1000 nM.
The corresponding values for `C=CCC1CC[C@@H]2CN(c3nc(C(C)(C)C)ccc3C(=O)NS(=O)(=O)c3cccc(n3)N1)C(C)(C)C2` (single isomer, unassigned) [Compound 35] are “++ (++ is 30-60%)” and less than 1000 nM.
Consider `CC(C)(C)c1ccc2c(n1)N1C[C@@H](CCC(c3cc(C(C)(C)O)ccn3)Nc3cccc(n3)S(=O)(=O)NC2=O)CC1(C)C` (single isomer, unassigned) [Compound 36], for which the “Corrector Assay A % activity” value is “+++ (+++ is >60%)” and the EC50 is less than 1000 nM.
On to `CC(C)(C)c1ccc([C@@H]2CC[C@@H]3CN(c4nc(C(C)(C)C)ccc4C(=O)NS(=O)(=O)c4cccc(n4)N2)C(C)(C)C3)cc1` (single isomer, unassigned) [Compound 37], for which the “Corrector Assay A % activity” value is listed as “++ (++ is 30-60%)” and the EC50 is less than 1000 nM.
For `CC(C)(C)c1ccc([C@@H]2CC[C@@H]3CN(c4nc(C(C)(C)C)ccc4C(=O)NS(=O)(=O)c4cccc(n4)N2)C(C)(C)C3)cc1` (single isomer, unassigned) [Compound 38], the “Corrector Assay A % activity” value is “+++ (+++ is >60%)” and the EC50 is less than 1000 nM.
In the same order, the values of `CC(C)(C)c1ccc2c(n1)N1C[C@@H](CCC(c3ccc(C4COC4)cn3)Nc3cccc(n3)S(=O)(=O)NC2=O)CC1(C)C` (single isomer, unassigned) [Compound 39] are “+++ (+++ is >60%)” and less than 1000 nM.
Turning to `CC(C)(C)c1cccc(C2CC[C@@H]3CN(c4nc(C(C)(C)C)ccc4C(=O)NS(=O)(=O)c4cccc(n4)N2)C(C)(C)C3)c1` (single isomer, unassigned) [Compound 40], the “Corrector Assay A % activity” value is reported as “++ (++ is 30-60%)” and the EC50 was less than 1000 nM.
`CC(C)(C)c1cccc(C2CC[C@@H]3CN(c4nc(C(C)(C)C)ccc4C(=O)NS(=O)(=O)c4cccc(n4)N2)C(C)(C)C3)c1` (single isomer, unassigned) [Compound 41]: the “Corrector Assay A % activity” value is reported as “+++ (+++ is >60%)” and the EC50 was less than 1000 nM.
The corresponding values for `CC1(C)CC(C2CC[C@@H]3CN(c4nc(C(C)(C)C)ccc4C(=O)NS(=O)(=O)c4cccc(n4)N2)C(C)(C)C3)CC(C)(C)O1` (single isomer, unassigned) [Compound 42] are “++ (++ is 30-60%)” and less than 1000 nM.
`CC1(C)CC(C2CC[C@@H]3CN(c4nc(C(C)(C)C)ccc4C(=O)NS(=O)(=O)c4cccc(n4)N2)C(C)(C)C3)CC(C)(C)O1` (single isomer, unassigned) [Compound 43]: the “Corrector Assay A % activity” value is “+ (+ is <30%)”.
With `CC(C)(C)c1ccc2c(n1)N1C[C@@H](CCC(C)(c3ccccn3)Nc3cccc(n3)S(=O)(=O)NC2=O)CC1(C)C` (single isomer, unassigned) [Compound 44], the “Corrector Assay A % activity” value was “++ (++ is 30-60%)” and the EC50 was less than 1000 nM.
The corresponding values for `CC(C)(C)c1ccc2c(n1)N1C[C@@H](CCC(C)(c3ccccn3)Nc3cccc(n3)S(=O)(=O)NC2=O)CC1(C)C` (single isomer, unassigned) [Compound 45] are “++ (++ is 30-60%)” and less than 1000 nM.
In the same order, the values of `CC(C)(C)c1ccc2c(n1)N1C[C@@H](CCC(c3cc(Br)ccn3)Nc3cccc(n3)S(=O)(=O)NC2=O)CC1(C)C` (single isomer, unassigned) [Compound 46] are “+++ (+++ is >60%)” and less than 1000 nM.

A word on the EC50: it is the concentration that produces a half-maximal response.
